Results on nine compounds are retold here after ChEMBL document CHEMBL1125013, “Quinazoline antifolate thymidylate synthase inhibitors: 2'-fluoro-N10-propargyl-5,8-dideazafolic acid and derivatives with modifications in the C2 position” (J Med Chem, 1990).

Assay [1] has as its system L1210. Nature of the assay: The inhibitory activity was determined on L1210 mouse leukemia cell in presence of thymidine. In kind it is functional. Further details: scale not given: the % may be the effect or the level left.
Assay [2] relates to L1210. In words: Concentration required to inhibit 50% growth of L1210 mouse leukemia cells was determined. In kind it is functional, cell-based.
Another assay concerns L1210 (1565). In words: cells. The settings on record: Mus musculus. In kind it is functional, cell-based.
Another assay has as its system L1210 (R7A). Nature of the assay: Concentration required to inhibit 50% growth of L1210 of R7A mutant mouse leukemia cell line was determined. In kind it is functional, cell-based.
The next assay concerns the target Thymidylate synthase (Mus musculus, UniProt P07607). In words: Concentration required to inhibit 50% activity of Thymidylate synthase was determined.

Thymidylate synthase, sequence (P07607 whole entry): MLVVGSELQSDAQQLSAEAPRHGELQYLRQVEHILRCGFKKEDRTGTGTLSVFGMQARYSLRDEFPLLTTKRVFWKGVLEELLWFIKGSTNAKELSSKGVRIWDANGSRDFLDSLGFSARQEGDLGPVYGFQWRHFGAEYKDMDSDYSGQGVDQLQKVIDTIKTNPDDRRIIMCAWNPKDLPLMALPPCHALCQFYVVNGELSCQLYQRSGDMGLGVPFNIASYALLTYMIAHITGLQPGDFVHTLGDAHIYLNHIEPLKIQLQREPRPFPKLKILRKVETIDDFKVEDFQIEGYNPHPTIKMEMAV
Description for L1210 (1565): Concentration required to inhibit 50% growth of L1210 /1565 mutant mouse leukemia cell line was determined

By IC50 is commonly meant the concentration at which inhibition is half-maximal. On to `C#CCN(Cc1ccc2nc(CO)[nH]c(=O)c2c1)c1ccc(C(=O)N[C@@H](CCC(=O)O)C(=O)O)c(F)c1`, for which the Control in the assay with L1210 [1] is 82%. Further, the IC50 in the assay on L1210 [2] came out at 1.9 µM; with L1210 (1565) it was 6 µM.
Consider `C#CCN(Cc1ccc2[nH]c(N)nc(=O)c2c1)c1ccc(C(=O)N[C@@H](CCC(=O)O)C(=O)O)cc1`, for which the figures for the half-maximal inhibitory concentration (IC50) in the assay on L1210 (R7A), in the assay on L1210 [2] and in the assay on L1210 (1565) were 41 µM, 3.5 µM and 3.6 µM, respectively. In addition, the Control in the assay on L1210 [1] was found to be 96%.
Regarding `C#CCN(Cc1ccc2nc[nH]c(=O)c2c1)c1ccc(C(=O)N[C@@H](CCC(=O)O)C(=O)O)c(F)c1`, the IC50 in the assay with L1210 (R7A) came out at 3.8 µM; in the assay on L1210 [2], 0.29 µM; on Thymidylate synthase it was 0.058 µM; in the assay with L1210 (1565), 1.2 µM. In the assay on L1210 [1], the Control was 84%.
For `C#CCN(Cc1ccc2nc(OC)[nH]c(=O)c2c1)c1ccc(C(=O)N[C@@H](CCC(=O)O)C(=O)O)cc1`, the IC50 with L1210 (R7A) was 14 µM; in the assay with L1210 [2] it was 1.9 µM; in the assay with L1210 (1565), 160 µM. The Control with L1210 [1] is given as 100%.
As for `C#CCN(Cc1ccc2nc[nH]c(=O)c2c1)c1ccc(C(=O)N[C@@H](CCC(=O)O)C(=O)O)cc1`, the IC50 with L1210 (R7A) amounted to 7.5 µM; in the assay with L1210 [2] it was 0.36 µM; in the assay with L1210 (1565), 4.1 µM. In the assay on L1210 [1], the Control is given as 100%.
`C#CCN(Cc1ccc2nc(N)[nH]c(=O)c2c1)c1ccc(C(=O)N[C@@H](CCC(=O)O)C(=O)O)c(F)c1`: the IC50 amounted to 6.2 µM in the assay with L1210 (R7A), 1.1 µM with L1210 [2], 0.009 µM against Thymidylate synthase and 0.6 µM in the assay with L1210 (1565). Moreover, the Control with L1210 [1] is on record as 84%.
Regarding `C#CCN(Cc1ccc2nc(OC)[nH]c(=O)c2c1)c1ccc(C(=O)N[C@@H](CCC(=O)O)C(=O)O)c(F)c1`, in the assay with L1210 [1], the Control was found to be 89%. The IC50 in the assay with L1210 [2] is 1 µM; against Thymidylate synthase it was 0.036 µM; in the assay with L1210 (1565), 45 µM.
On to `C#CCN(Cc1ccc2nc(C)[nH]c(=O)c2c1)c1ccc(C(=O)N[C@@H](CCC(=O)O)C(=O)O)cc1`, for which the figures for the IC50 in the assay with L1210 (R7A), in the assay with L1210 [2] and with L1210 (1565) were 0.39 µM, 0.085 µM and 8.3 µM, respectively. The Control in the assay with L1210 [1] was 100%.
As to `C#CCN(Cc1ccc2nc(C)[nH]c(=O)c2c1)c1ccc(C(=O)N[C@@H](CCC(=O)O)C(=O)O)c(F)c1`, the half-inhibitory concentration (IC50) with L1210 (R7A) stood at 0.11 µM; with L1210 [2], 0.027 µM; against Thymidylate synthase, 0.02 µM; with L1210 (1565) it was 2.2 µM. The Control in the assay with L1210 [1] was found to be 97%.
